Entries after “also recorded” stand apart in the source; their conditions may differ.
Columns and labels:
[1] = cited from earlier work; for time of peak concentration: after oral administration
SARS-CoV-2 = details: single agent; cited from earlier work
[2] = test system: SARS-CoV-2 (USA_WA1/2020); assay: SARS-CoV-2 viral cytopathic effect assay; assay type: cell-based; details: for interaction with nitazoxanide: in combination with nitazoxanide; for interaction with nitazoxanide / interaction with remdesivir: CPE assay; for interaction with remdesivir / interaction with remdesivir at high concentrations: in combination with remdesivir; for maximum rescue of CPE, drug alone: single agent
[3] = healthy adults; cited from earlier work

Row | Compound | time of peak concentration [1] [min] | interaction with nitazoxanide [2] | interaction with remdesivir [2] | interaction with remdesivir at high concentrations [2] | maximum rescue of CPE, drug alone [2] | also measured
1 | CCN(CC)Cc1cc(Nc2ccnc3cc(Cl)ccc23)ccc1O [Amodiaquine] | ≤ 30 | significant synergy; also recorded: notable synergism | strong antagonistic effect | synergize | 40–60% | half-life [1]: ~ 3 hours; loss of potency in Calu-3 (TMPRSS2+) versus Vero E6 (SARS-CoV-2): > 10 fold
2 | CCOC(=O)c1c(CSc2ccccc2)n(C)c2cc(Br)c(O)c(CN(C)C)c12 [Arbidol] | – | – | – | synergize | – | concentrations showing synergism with remdesivir [2]: 3 to 10 µM
3 | OC(c1cc(C(F)(F)F)nc2c(C(F)(F)F)cccc12)C1CCCCN1 (centres unmarked) [Mefloquine] | – | – | strong antagonistic effect | synergize | – | –
4 | CC(=O)Oc1ccccc1C(=O)Nc1ncc([N+](=O)[O-])s1 [Nitazoxanide] | – | – | – | – | 40–60% | toxicity (Vero E6 cells; 10 μM): ~ 20%; cytotoxicity (Vero E6 cells; concentration below 5 μM): not cytotoxic; tolerability [3]: well tolerated
5 | CCC(CC)COC(=O)[C@H](C)N[P@](=O)(OC[C@H]1O[C@@](C#N)(c2ccc3c(N)ncnn23)[C@H](O)[C@@H]1O)Oc1ccccc1 [Remdesivir] | – | significant synergy; also recorded: notable synergism | – | – | 40–60% | –
6 | CCNCc1cc(Nc2ccnc3cc(Cl)ccc23)ccc1O [monodesethyl-amodiaquine] | 120 | – | – | – | – | peak concentration ([1]; after oral administration of amodiaquine): ~ 500 nM; half-life in blood plasma [1]: 220 to 432 h

— article PMC7337386 (bioRxiv, 2020)
